Results as given in patent US20260227379A1, “DEVICES AND METHODS FOR CLOT BURST PRESSURE MEASUREMENT” (THE BOARD OF REGENTS OF THE UNIVERSITY OF TEXAS SYSTEM, priority 2023, published 2026).

Experiments:
[1] = tested on: whole blood (WB) clot; assay: Clot burst pressure (CBP) assay on conditioned whole blood; assay type: cell-based; conditions: for CBP normalized to individual donor baseline (times as strong): recalcified 6 mM CaCl2, 37 C 30 min
Procedure: An exemplary embodiment of the present disclosure was used to obtain test data as follows. Blood from donors (n=7) was collected into 3.2% sodium citrate tubes. Blood was divided and treated to achieve the following conditions for a hypocoagulable state: 0.10, 0.15, and 0.20 USP heparin/mL blood; for a hypercoagulable state, blood was treated with a 1.0 or 2.0 g/L addition of fibrinogen. 2 mm holes were drilled into 6-well polystyrene plates and packing tape was used to cover the bottom. Blood was recalcified with CaCl2 and pipetted into the holes. The plates were incubated at 37 C for 30 minutes to allow for thrombus formation. Tape was removed after incubation. A pressure cap was designed with an inlet for fluid from a syringe pump and an outlet for outflow and was secured in the wells with a watertight seal. Outflow led to a vertical graduated measurement column where pressure was converted from cmH2O to mmHg for data analysis.
The device comprises four primary components as shown in FIG. 1: a syringe pump, a pressure cap, a 6-well plate assembly, and a water column. A Programmable Syringe Pump was programmed to pump a 100 cc syringe at 1 mL/s at a continuous rate. The syringe pump is coupled to a pressure cap assembly.
The pressure cap assembly shown in FIGS. 2 and 3 directs fluid flow directly over a clot and prevents pressure loss to the environment. The cap has two female ports allowing for an inlet connection from the syringe pump and an outlet connecting to the water column. The cap has three legs to avoid direct contact with a clot. An O-Ring (Dash 242) fits in the groove found around the pressure cap ensuring a snug fit in a standard 6-well plate. As fluid enters the pressure cap, it is directed into a compartment where a formed clot is suspended. Backflow fluid rises up a 150 cm water column created from clear PVC pipe marked at 5 cm intervals. All connections used Luer locks and barbed connections to prevent fluid loss.
A 20″×20″ HDPE board was used as the base of the device, which contained the 6-well plate assembly and water column. 4, 2″ screws were used to elevate the 6-well plate assembly to allow for easy visual inspection after trial runs. A single 5/64″ hole was drilled into the centers of each well in a 6-well plate. 220-grit sandpaper was used in a circular manner on the inner surface of the well-plate to provide a sheared surface for platelet adhesion. Clear packing tape was used to cover the holes on the bottom of the plate prior to the start of the assay.
Venipuncture whole blood (WB) was collected from donors (male and female) who were at least 18 years of age and had not taken anticoagulant medication in the past 14 days. Blood was drawn from the antecubital fossa using a 19G needle into a standard blue top 3.2% sodium citrate vacutainer tube. Tubes were placed on a rocker at room temperature prior to use in the assay, but all assay runs were initiated within 30 minutes of blood draw.
WB was conditioned to mimic hyper and hypocoagulable states. RiaSTAP a lyophilized fibrinogen concentrate, was used to generate a hypercoagulable condition. WB was conditioned with a 1.0 mg/mL or 2.0 mg/mL bolus of fibrinogen. Heparin sodium salt (Sigma-Aldrich, OH) was reconstituted and added to WB at 0.10, 0.15, 0.20 USP/mL amounts to generate a hypocoagulable state. 6 mM of CaCl2) was added to each conditioned blood group and a control group to recalcify and promote coagulation.
35 μL of conditioned or control WB was placed in the 5/64″ hole above the packing tape in each well of the 6-well plates. The entire plate was incubated at 37 C for 30 min with the plate lid on. After 30 min, the plate was removed from the incubator and the packing tape on the bottom was removed. The pressure cap was placed in a single well in a spiral manner and an air-tight seal was created with the O-Ring. One port of the pressure cap was connected to the syringe pump and the other port to the vertical water column. […]

[2] = tested on: whole blood (WB) clot; assay: as above; assay type: cell-based
[3] = Whole Blood w/ Heparin 0.10 USP/mL
[4] = Whole Blood w/ Heparin 0.15 USP/mL
[5] = Whole Blood w/ Heparin 0.20 USP/mL

Heparin sodium salt
Clot Integrity [1, 3]: Weakened Clot | Difference Between All Groups in CBP [1, 3]: Yes | Clot Integrity [1, 4]: Weakened Clot | Difference Between All Groups in CBP [1, 4]: Yes | Clot Integrity [1, 5]: Weakened Clot | Difference Between All Groups in CBP [1, 5]: Yes | Dose dependence of clot strength (CBP) ([1]; between the 0.10 and 0.20 USP heparin/mL group, whole blood): dose-dependent weakness | Clot formation ([1]; heparin 0.20-0.10 USP/mL range in whole blood): weaker, but stable clot | CBP normalized to individual donor baseline (times as strong) ([1]; whole blood + 0.10 USP heparin/mL): 0.54±0.19 | CBP normalized to individual donor baseline (times as strong) ([1]; whole blood + 0.15 USP heparin/mL): 0.41±0.17 | CBP normalized to individual donor baseline (times as strong) ([1]; whole blood + 0.20 USP heparin/mL): 0.25±0.02 | Clot Integrity ([2]; Whole Blood w/ Heparin 0.25 USP/mL): Porous Clot | Clot Integrity ([2]; Whole Blood w/ Heparin 0.35 USP/mL, listed as heparin, sodium salt): completely inhibits clot production | Clot Integrity ([2]; Whole Blood w/ Heparin 0.35 USP/mL, sodium salt): No Clot Formation
